# Source: patent publication US12479877B2, “Methods for purifying steviol glycosides and uses of the same” (PureCircle Sdn. Bhd., priority 2010, dated 2025)
# Values joined by “and” are separate entries in the source; they are usually repeats but may differ in a detail not shown here. Equal entries are not always repeated.
# Tests used:
# [1] = system: one experienced panelist; assay: Taste evaluation of Reb X against Reb A and Reb D, multi-sip and swallow taste method; format: in vivo, human
# Description: The taste properties of a sample of Reb X were studied against Rebaudioside A (Reb A) and Rebaudioside D (Rb D) samples. Rb A was obtained from Cargill (lot #1040) and Reb-D was obtained from PureCircle (lot #11/3/08).
# The samples were prepared at 500 ppm for sweetness evaluation by adding moisture compensated mass into a 100 mL sample of carbon-treated water and citric buffer solutions.
# (§1) Citric buffer was prepared by mixing 1.171 g/L citric acid, 0.275 g/L sodium citrate and 0.185 g/L sodium benzoate with carbon-treated water, with a final pH of 3.22. The mixtures were moderately stirred at room temperature. The Reb X sample was then evaluated against the two control Reb A and Reb D samples in water and citric buffer at room temperature (RT) and at 4° C. in an ice bath by one experienced panelist for any tasting quality determinations using the controlled, multi-sip and swallow taste method shown below:
# 1. Take first sip (˜1.8 mL) of control and swallow. Wait for 15-25 sec, then take second sip of control and wait for 15-25 sec.
# 2. Take first sip of the experimental sample, wait for 15-25 sec, then take second sip. Compare to second sip of control.
# 3. Repeat steps #1 and #2 for the third and fourth sips of the control and experimental samples to confirm the initial finding.
# The taste evaluation results of the Reb X samples against the control Reb A and Reb D samples at 500 ppm in citric buffer (CB) at 4° C. and RT are described in Table 4.
# [2] = Solubility studies in carbon-treated water and citrate buffer; format: physicochemical
# Description: as §1
# The samples used to evaluate the taste properties in Example 2 were also used for solubility studies.
# [3] = Solubility of 600 ppm Reb X stock solution in citric buffer; format: physicochemical; conditions: 0.06% (w/v) in citric buffer at up to 52° C. for ca. 15-20 minutes
# Description: The isosweetness levels of Reb X in a citric buffer system at room temperature and 4° C. were evaluated. A 600 ppm stock solution of Reb X was prepared by adding a mass of 0.15 g into a 250 mL sample of citric buffer (CB) solution. The mixture was moderately stirred at warmer temperature (up to ca. 52° C.) on a heated stirrer for about 15-20 minutes and then cooled. The citric buffer was prepared by adding 1.6 g citric acid, 0.6 g potassium citrate and 0.253 g sodium benzoate in 1 L of carbon-treated water. The pH of the mixture was 3.1. […] The controls of 0.75%, 2%, 4%, 6%, 8%, 10% and 15% sucrose equivalence (SE) were also prepared by adding sugar (w/v) into the CB. The mixtures were moderately stirred and then ready for the isosweetness determination test. The Reb X samples were then evaluated against the control sugar samples in citric buffer at room temperature (RT) and 4° C. (in an ice bath) by one experienced taster for an isosweetness determination using the controlled, multi-sip and swallow taste method.
# Despite the stronger mouthfeel or texture effect (syrupy, thicker) at ca. 15% sucrose, it was difficult to determine the isosweetness levels for at least 400 ppm of Reb X due to its thinner mouthfeel but broader and more impact sweetness temporal profile as well as its significant sweet lingering.
# [4] = Beverage formulations: taste properties compared with Reb A; format: in vivo, human
# [5] = system: panel of trained tasters; assay: Reb X sweetness vs. concentration, matched to sucrose references; format: in vivo, human; conditions: for Reb X Concentration (ppm) matching sucrose reference: Reb X 98% purity, water at room temperature
# Description: 2.5%, 5.0%, 7.5%, and 10.0% sucrose solutions were prepared in neutral (7.0 pH) and acidified water (3.2 pH) as reference samples. Solutions containing Reb X (98% purity) were prepared to match the sweetness of each sucrose reference in neutral and acidified water. Samples were tasted and verified by a panel of trained tasters in water at room temperature.
# [6] = system: semi-trained panel members; assay: Sensory comparison of Reb X and Reb A, iso-sweet samples at 8% sucrose equivalent; format: in vivo, human
# Description: To compare the sensory attributes between Reb X and Reb A, iso-sweet samples having 8% sucrose equivalent sweetness were made with filtered water as shown in Table 8. An 8% sugar solution in water at room temperature was used as a control. An 8% sugar solution in the acidified solution was used as the control. The samples prepared with filtered water were evaluated by 34 semi-trained panel members at room temperature. The samples prepared with acidified water were evaluated by 23 semi-trained panel members at room temperature. Samples were given to the panel members sequentially and coded with triple digit numbers. The order of sample presentation was randomized to avoid order of presentation bias. Water and unsalted crackers were provided in order to cleanse the palate. The panel members were asked to rate different attributes including sweetness onset, total sweetness, rounded sweetness, bitterness, acidity, leafy note, licorice, astringency, mouthfeel, mouth coating, sweet lingering, and bitter lingering. Samples were rated on a scale of zero (0) to ten (10), with zero indicating immediate onset, no intensity, watery/low viscosity, or very sharp peak, and ten indicating very delayed onset, high intensity, thick/high viscosity, or very round peak. One-way single factor ANOVA was used to analyze sensory results, where α=0.05.
# [7] = Sweetness Equivalent (SE) 10.0%
# [8] = acidified water (250 ppm citric acid, pH 3.2), 23 panel members, FIG. 12
smiles,measurement,setting,value
"C=C1C[C@@]23CCC4[C@](C)(C(=O)OC5OC(CO)C(O)C(OC6OC(CO)C(O)C(O)C6O)C5OC5OC(CO)C(O)C(O)C5O)CCC[C@@]4(C)[C@@H]2CCC1(OC1OC(CO)C(O)C(OC2OC(CO)C(O)C(O)C2O)C1OC1OC(CO)C(O)C(O)C1O)C3 (stereo partly drawn) [Reb X, (13-[2-O-β-D-glucopyranosyl-3-O-β-D-glucopyranosyl-β-D-glucopyranosyl)oxy] ent kaur-16-en-19-oic acid-[2-O-β-D-glucopyranosyl-3-O-β-D-glycopyranosyl) ester]",Taste quality at room temperature versus 4° C.,[1]; 500 ppm in citrate buffer,similar
same,Taste quality compared with Reb A and Reb D,[1]; 500 ppm in citrate buffer,much better than Reb A or Reb D
same,Sweet temporal profile and sweetness linger,"[1]; 500 ppm in citrate buffer, compared with Reb A",fatty-like or broader sweet temporal profile and less sweetness linger than that of Reb A
same,Taste Properties,"[1]; 500 ppm in citric buffer (pH 3.22), room temperature",Clean sweet taste. Broad and full sweetness profile. Moderate
same,"Astringency, sweetness intense (depth) and bitterness notes","[1]; 500 ppm, citrate buffer system, compared with Reb A",did not have the astringency or sweetness intense (depth) and bitterness notes compared to that of the Reb A
same,Estimated time to solubilize,[2]; 0.01% in carbon-treated water,15 min
same,Estimated time to solubilize,[2]; 0.01% in citrate buffer,25 min
same,Estimated time to solubilize,[2]; 0.02% in carbon-treated water,25 min
same,Estimated time to solubilize,[2]; 0.02% in citrate buffer,25 min
same,Estimated time to solubilize,[2]; 0.04% in carbon-treated water,33 min
same,Estimated time to solubilize,[2]; 0.04% in citrate buffer,35 min
same,Estimated time to solubilize,[2]; 0.05% in carbon-treated water,39 min
same,Estimated time to solubilize,[2]; 0.05% in citrate buffer,42 min
same,Estimated time to solubilize,[2]; 0.075% in carbon-treated water,55 min
same,Estimated time to solubilize,[2]; 0.075% in citrate buffer,55 min
same,Estimated time to solubilize,[2]; 0.10% in carbon-treated water,106 min
same,Estimated time to solubilize,[2]; 0.10% in citrate buffer,106 min
same,Estimated time to solubilize,[2]; 0.15% in carbon-treated water,Insoluble after 20 hours
same,Estimated time to solubilize,[2]; 0.15% in citrate buffer,Insoluble after 20 hours
same,Initial solubility test (comparative),[2]; 500 ppm concentrations in citrate buffer,significantly greater solubility than that of Reb D and significantly less solubility than Reb A
same,Solubility and appearance,[3],very soluble and clear (colorless)
same,Taste properties compared to Reb A drink,"[4]; flavored zero caloric black tea drink, 250 ppm Reb X vs 250 ppm Reb A",much cleaner in finish with less sweetness linger and a more rounded overall sweetness profile
same,Reb X level closest in sweetness level to a 11.5 Brix high fructose corn syrup sweetened orange flavored sparkling beverage,[4]; zero caloric orange-flavored sparkling beverage base,500 ppm and 550 ppm
same,Taste compared to Reb A-containing formulations,"[4]; zero caloric orange-flavored sparkling beverage, Reb X 400 to 750 ppm in 50 ppm increments",significantly better than comparable Reb A-containing formulations
same,Taste properties compared to Reb A drink,"[4]; zero calorie enhanced water drink, 200 ppm Reb X vs 200 ppm Reb A",cleaner in finish and had reduced sweetness linger and a more rounded overall sweetness taste quality
same,Sweetness Factor (SF),[5]; Sweetness Equivalent (SE) 2.5%,521
same,Reb X Concentration (ppm) matching sucrose reference,[5]; Sweetness Equivalent (SE) 2.5%,48 ppm
same,Sweetness Factor (SF),[5]; Sweetness Equivalent (SE) 5.0%,380
same,Reb X Concentration (ppm) matching sucrose reference,[5]; Sweetness Equivalent (SE) 5.0%,132 ppm
same,Sweetness Factor (SF),[5]; Sweetness Equivalent (SE) 7.5%,295
same,Reb X Concentration (ppm) matching sucrose reference,[5]; Sweetness Equivalent (SE) 7.5%,254 ppm
same,Sweetness Factor (SF),[5]; [7],237
same,Reb X Concentration (ppm) matching sucrose reference,[5]; [7],422 ppm
same,Perceived sweetness compared to Reb A,[6]; [8],higher sweetness of Reb X over Reb A is significant
same,"Sweetness onset, non-sweet taste and bitterness lingering compared to Reb A",[6]; [8],"faster sweetness onset, reduced non-sweet taste (bitterness, sour, astringency) and bitterness lingering"
same,"Bitterness, astringency and bitter lingering compared to Reb A","[6]; filtered water, room temperature, 34 panel members, FIG. 11","reduced perception of bitterness, astringency and bitter lingering compared to Reb A"
